Reference: ChEMBL document CHEMBL4041539, “1,2,3-Triazole-nimesulide hybrid: Their design, synthesis and evaluation as potential anticancer agents” (Bioorg Med Chem Lett, 2017)

Assays:
DU-145 = assay: Growth inhibition of human DU145 cells after 48 hrs by MTT assay; type: functional, cell-based; conditions: DU-145, 48 h
HeLa = assay: Growth inhibition of human HeLa cells after 48 hrs by MTT assay; type: functional, cell-based
[1] = biological target: 3',5'-cyclic-AMP phosphodiesterase 4B (Homo sapiens) (UniProt Q07343); assay: Inhibition of recombinant His-tagged PDE4B1 (unknown origin) expressed in baculovirus infected sf9 cells at 10 uM using cAMP as substrate preincubated for 15 mins followed by cAMP addition measured after 1 hr by PDE light HTS assay relative to control
Chain of 3',5'-cyclic-AMP phosphodiesterase 4B (Homo sapiens) (Q07343 whole entry): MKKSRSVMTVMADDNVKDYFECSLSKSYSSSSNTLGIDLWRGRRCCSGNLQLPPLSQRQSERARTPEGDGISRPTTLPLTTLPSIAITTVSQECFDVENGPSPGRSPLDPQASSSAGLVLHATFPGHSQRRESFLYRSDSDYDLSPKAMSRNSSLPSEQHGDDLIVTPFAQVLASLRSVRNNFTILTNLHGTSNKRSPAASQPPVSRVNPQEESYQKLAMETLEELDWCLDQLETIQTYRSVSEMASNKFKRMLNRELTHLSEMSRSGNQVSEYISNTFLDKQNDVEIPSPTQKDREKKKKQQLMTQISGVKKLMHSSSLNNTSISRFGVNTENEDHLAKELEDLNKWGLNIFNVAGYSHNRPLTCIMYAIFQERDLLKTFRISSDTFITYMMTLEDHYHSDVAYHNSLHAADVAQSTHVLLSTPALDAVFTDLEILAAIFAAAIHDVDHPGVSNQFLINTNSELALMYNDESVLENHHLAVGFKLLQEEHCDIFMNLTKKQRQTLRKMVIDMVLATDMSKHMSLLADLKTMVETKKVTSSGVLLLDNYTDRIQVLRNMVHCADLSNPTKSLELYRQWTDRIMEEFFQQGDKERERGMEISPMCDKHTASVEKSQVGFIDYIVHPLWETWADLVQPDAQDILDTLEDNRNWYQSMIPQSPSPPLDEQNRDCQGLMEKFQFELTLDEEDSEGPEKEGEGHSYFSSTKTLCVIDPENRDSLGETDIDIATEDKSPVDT

HEK293 = assay: Cytotoxicity against HEK293 cells up to 10 uM after 48 hrs by MTT assay; type: cell-based; conditions: human, hek293, 48 h
[2] = biological target: Prostaglandin G/H synthase 2 (Homo sapiens) (UniProt P35354); assay: Inhibition of human COX2 expressed in baculovirus infected sf9 microsomes at 10 uM using arachidonic acid as substrate preincubated for 15 mins followed by substrate addition by TMPD oxidation based assay relative to control
Chain of Prostaglandin G/H synthase 2 (Homo sapiens) (P35354 whole entry, looked up): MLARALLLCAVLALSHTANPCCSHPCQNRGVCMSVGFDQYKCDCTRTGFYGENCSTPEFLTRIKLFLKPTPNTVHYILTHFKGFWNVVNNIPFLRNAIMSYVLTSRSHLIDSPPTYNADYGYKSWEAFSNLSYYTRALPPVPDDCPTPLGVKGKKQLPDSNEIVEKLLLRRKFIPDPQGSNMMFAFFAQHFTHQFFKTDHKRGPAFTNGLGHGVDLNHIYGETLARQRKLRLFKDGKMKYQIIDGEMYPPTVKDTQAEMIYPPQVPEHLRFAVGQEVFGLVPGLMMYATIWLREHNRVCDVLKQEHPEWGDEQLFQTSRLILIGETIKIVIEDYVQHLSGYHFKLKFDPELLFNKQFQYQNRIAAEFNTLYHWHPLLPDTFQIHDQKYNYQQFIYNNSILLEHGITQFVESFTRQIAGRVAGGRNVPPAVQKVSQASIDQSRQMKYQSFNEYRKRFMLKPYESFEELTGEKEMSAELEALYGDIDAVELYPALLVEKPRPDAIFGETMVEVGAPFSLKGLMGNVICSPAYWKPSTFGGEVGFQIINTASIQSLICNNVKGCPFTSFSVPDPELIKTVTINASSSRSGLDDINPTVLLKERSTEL

HepG2 = assay: Growth inhibition of human HepG2 cells after 48 hrs by MTT assay; type: functional, cell-based; conditions: HepG2, 48 h
A549 = assay: Growth inhibition of human A549 cells after 48 hrs by MTT assay; type: functional, cell-based; conditions: A549, 48 h

IC50 (DU-145) [µM]	IC50 (HeLa) [µM]	inhibition [1] [%]	inhibition [2] [%]	IC50 (HepG2) [µM]	IC50 (A549) [µM]	SMILES	Activity (HEK293)
6.4	7.8	62.8	23	7.5	7.1	CS(=O)(=O)Nc1ccc(-n2cc(COc3ccc(Cl)cc3)nn2)cc1Oc1ccccc1	Non-Toxic
9.1	12.8	–	–	19.5	8.3	CS(=O)(=O)Nc1ccc(-n2cc(COc3ccc4ccccc4c3)nn2)cc1Oc1ccccc1	Non-Toxic
14.2	21.9	–	–	13.6	29.9	CS(=O)(=O)Nc1ccc(-n2cc(-c3ccccc3)nn2)cc1Oc1ccccc1	Non-Toxic
7.2	–	70.2	–	–	6.6	CS(=O)(=O)Nc1ccc(-n2cc(COc3ccc([N+](=O)[O-])cc3)nn2)cc1Oc1ccccc1	Non-Toxic
–	–	52	–	35.2	67.8	CS(=O)(=O)Nc1ccc([N+](=O)[O-])cc1Oc1ccccc1 [NIMESULIDE]	–
8.2	15.8	–	–	13	8	Cc1ccc(OCc2cn(-c3ccc(NS(C)(=O)=O)c(Oc4ccccc4)c3)nn2)cc1	Non-Toxic
21.1	38.6	–	–	25.3	53.8	CS(=O)(=O)Nc1ccc(-n2cc(COc3ccccc3Cl)nn2)cc1Oc1ccccc1	Non-Toxic
5.9	7.9	67.5	–	9.8	6.7	Cc1cc(OCc2cn(-c3ccc(NS(C)(=O)=O)c(Oc4ccccc4)c3)nn2)ccc1Cl	Non-Toxic
11.2	–	–	–	18.3	–	Cc1ccc(-c2cn(-c3ccc(NS(C)(=O)=O)c(Oc4ccccc4)c3)nn2)cc1	Non-Toxic
